Measurements as given in patent US10023592B2, “Bromodomain inhibitors” (Celgene Quanticel Research, Inc., priority 2013, dated 2018).
pIC50: −log10 of the molar value.

Target: BRD4(BD1) (Homo sapiens (Human), UniProt O60885)
Experiment: In vitro enzyme inhibition assay (BRD4 AlphaScreen)
Type: binding
Conditions: in vitro enzyme inhibition assay
In short: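 His-tagged BRD4 tested by AlphaScreen for binding of biotinylated H4K5/8/12/16-tetraacetyl peptide. After 20 min at room temperature, streptavidin donor and nickel chelate acceptor beads added (5 μg/mL final each). IC50 determined.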

Compound | pIC50
CC(=O)Nc1nc(-c2cccc(NS(C)(=O)=O)c2)cn(C)c1=O [Example 478, N-[6-[3-(methanesulfonamido)phenyl]-4-methyl-3-oxopyrazin-2-yl]acetamide] | < 5.30
CCS(=O)(=O)Nc1cccc(-c2nn(C)c(=O)cc2C)c1 [Example 479, N-[3-(1,4-dimethyl-6-oxopyridazin-3-yl)phenyl]ethanesulfonamide] | < 5.30
CCS(=O)(=O)Nc1cccc(-c2cc(C)c(=O)n(C)n2)c1 [Example 480, N-[3-(1,5-dimethyl-6-oxopyridazin-3-yl)phenyl]ethanesulfonamide] | 5.30 to 6.30
CCC(=O)Nc1cc(-c2cccc(NS(C)(=O)=O)c2)cn(C)c1=O [Example 481, N-[5-[3-(methanesulfonamido)phenyl]-1-methyl-2-oxopyridin-3-yl]propanamide] | < 5.30
CC(=O)Nc1cc(-c2cccc(NS(C)(=O)=O)c2)cn(C)c1=O [Example 482, N-[5-[3-(methanesulfonamido)phenyl]-1-methyl-2-oxopyridin-3-yl]acetamide] | < 5.30
Cc1cc(-c2cc(S(C)(=O)=O)ccc2OCC2CC2)cn(C2CCC2)c1=O [Example 483, 1-cyclobutyl-5-[2-(cyclopropylmethoxy)-5-methylsulfonylphenyl]-3-methylpyridin-2-one] | > 6.30
Cc1cc(-c2cc(NS(C)(=O)=O)ccc2Oc2ccc(F)cc2F)cn(C2CCC2)c1=O [Example 484, N-[3-(1-cyclobutyl-5-methyl-6-oxopyridin-3-yl)-4-(2,4-difluorophenoxy)phenyl]methanesulfonamide] | > 6.30
Cc1cc(-c2cc(S(C)(=O)=O)ccc2OCC2CC2)cn(Cc2ccccc2)c1=O [Example 485, 1-benzyl-5-[2-(cyclopropylmethoxy)-5-methylsulfonylphenyl]-3-methylpyridin-2-one] | 5.30 to 6.30
Cc1cc(-c2cc(S(C)(=O)=O)cc3c2OCCO3)cn(C)c1=O [Example 489, 1,3-dimethyl-5-(7-methylsulfonyl-2,3-dihydro-1,4-benzodioxin-5-yl)pyridin-2-one] | 5.30 to 6.30
CCC1CCc2cc(NS(C)(=O)=O)cc(-c3cn(C)c(=O)c4ccccc34)c2O1 (stereo not shown) [Example 490, N-[2-ethyl-8-(2-methyl-1-oxoisoquinolin-4-yl)-3,4-dihydro-2H-chromen-6-yl] methanesulfonamide] | > 6.30
CCC1CCc2cc(NS(=O)(=O)CC)cc(-c3cn(C)c(=O)c4ccccc34)c2O1 (stereo not shown) [Example 491, N-[2-ethyl-8-(2-methyl-1-oxoisoquinolin-4-yl)-3,4-dihydro-2H-chromen-6-yl]ethanesulfonamide] | > 6.30
CCC1CCc2cc(NS(=O)(=O)CC)cc(-c3cc(C)c(=O)n(C)c3)c2O1 (stereo not shown) [Example 492, N-[8-(1,5-dimethyl-6-oxopyridin-3-yl)-2-ethyl-3,4-dihydro-2H-chromen-6-yl] ethanesulfonamide] | > 6.30
Cn1cc(-c2cc(S(C)(=O)=O)cc3c2OC(C2CC2)C3)c2ccccc2c1=O (stereo not shown) [Example 493, 4-(2-cyclopropyl-5-methylsulfonyl-2,3-dihydro-1-benzofuran-7-yl)-2-methylisoquinolin-1-one] | > 6.30
CCCC1Cc2cc(NS(=O)(=O)CC)cc(-c3cc(C)c(=O)n(C)c3)c2O1 (stereo not shown) [Example 495, N-[7-(1,5-dimethyl-6-oxopyridin-3-yl)-2-propyl-2,3-dihydro-1-benzofuran-5-yl] ethanesulfonamide] | > 6.30
COCC1COc2c(cc(S(C)(=O)=O)cc2-c2cc(C)c(=O)n(C)c2)O1 (stereo not shown) [Example 502, 5-[2-(methoxymethyl)-7-methylsulfonyl-2,3-dihydro-1,4-benzodioxin-5-yl]-1,3-dimethylpyridin-2-one] | > 6.30
CCS(=O)(=O)c1ccc(OCC2CC2)c(-c2cn(C)c(=O)c3c2CCC3)c1 [Example 505, 4-[2-(cyclopropylmethoxy)-5-ethylsulfonylphenyl]-2-methyl-6,7-dihydro-5H-cyclopenta[c]pyridin-1-one] | > 6.30
